Earlier results on 4 compounds are cited in US20210393650A1, “Designing Treatments for Chemotherapy-Induced and Age-Related Menopausal Symptoms Using Combinations of Natural Products and Prescription Medications” (Tess Ventures, Inc., priority 2018, published 2021).

The structures appear in SMILES notation.

The test system of series [1] is postmenopausal women. The following applies: human, in vivo.
The test system of series [2] is humans. The following applies: for effect on anxiety: humans, low to moderate doses.
The subject of series [3] is CB1 receptor. To be noted: centrally-mediated, through the CB1 receptor.
Series [4] deals with ovariectomized rat.

On to `OCCOc1ccc(/C(=C(/CCCl)c2ccccc2)c2ccccc2)cc1` [ospemifene, Z-2-[4-(4-chloro-1,2-diphenyl-but-1-enyl)-phenoxy]ethanol], for which the “treatment of VVA symptoms versus local estrogen” value in series [1] is “equivalent to or better than local estrogen”.
Turning to `CCCCCc1cc(O)c2c(c1)OC(C)(C)C1CCC(C)=CC21` (stereo not shown) [Δ^9-THC, 6,6,9-trimethyl-3-pentyl-6a,7,8,10a-tetrahydrobenzo[c]chromen-1-ol], in series [2], the effect on anxiety entry was “anxiolytic effects”. Further, in series [2] (insomnia), the “effect on sleep quality” value was “enhance short-term sleep quality”. The “effect on body temperature” value in series [3] is on record as “hypothermic effect”.
Regarding `COc1cc(/C=C/C(=O)CC(=O)/C=C/c2ccc(O)c(OC)c2)ccc1O` [curcumin], the tail skin temperature entry in series [4] is listed as “significant suppression”.
As for `C=C(C)[C@@H]1CCC(C)=C[C@H]1c1c(O)cc(CCCCC)cc1O` [CBD, 2-[(1R,6R)-3-methyl-6-prop-1-en-2-ylcyclohex-2-en-1-yl]-5-pentyl-benzene-1,3-diol], the effect on anxiety entry in series [2] is on record as “anxiolytic effects”. Moreover, the effect on insomnia result in series [2] (medium to high doses) is listed as “sedative effect”.
